According to patent US9849174B2, “Methods and compositions related to immunogenic fibrils” (The Board of Regents of the University of Texas System, priority 2009, dated 2017):
“Also recorded” adds a separate entry of the source. Ends that are not written are not given here.

Assays:
[1] = molecular target: T1, streptavidin-conjugated gold particles (Streptomyces avidinii, UniProt P22629); assay: Streptavidin-gold labelling of fibrils imaged by TEM; assay type: binding; settings: 5 nm streptavidin-conjugated gold
T1 construct: purchased Sigma
Description: The availability of the OVA epitope on the surface of O-Q11 nanofibers was confirmed by TEM and by ELISA. To label epitopes in TEM samples, an N-terminally biotinylated O-Q11 was synthesized with a single biotin tag directly adjacent to the OVA sequence. This biotinylated peptide produced fibrils that appeared morphologically similar to O-Q11 (FIG. 2D). Five-nanometer streptavidin-conjugated gold particles were then used to probe epitope availability on the fibril surface, with unmodified Q11 serving as a negative control. […] To confirm this finding and to quantify the availability of the entire epitope, ELISA was employed. Plates coated with OVA and O-Q11 peptides were probed with antisera from mice immunized with OVA, either with or without complete Freund's adjuvant (CFA).
Transmission Electron Microscopy. Peptides were dissolved in deionized water and mixed 6:1 with PBS to produce working peptide concentrations of 330 μM. After fibrillizing for 4h, peptides were applied to 400 mesh gold grids with carbon support films, negative-stained with 1% uranyl acetate, and imaged on a Tecnai F30 TEM. For gold staining, prior to negative-staining grids were placed upside-down on a droplet of blocking solution (0.2% acetylated BSA, 0.1% gelatin from cold water fish skin in PBS) for 5 min, then for 2 h on a droplet of 5 nm colloidal gold conjugated to streptavidin (Sigma). […]

[2] = test system: C57BL/6 mice; assay: Subcutaneous immunization of mice, serum antibody titers and isotypes by ELISA (Example 1); assay type: in vivo
Experimental: To investigate how fibrillization affected the immunogenicity of OVA, C57BL/6 mice were immunized subcutaneously with the different peptides and boosted with additional peptide at 28 days (see methods). Serum was collected seven days after the boost, and levels of various immunoglobulins were measured.
Immunizations. […] Stock solutions were then diluted in sterile, endotoxin-free PBS to working concentrations. […] CFA-adjuvanted groups received the same volume and total peptide dose, prepared by emulsifying peptide/PBS solutions 1:1 in CFA. […] CFA groups were boosted in incomplete Freund's adjuvant (IFA). Mice receiving mixtures of Q11 and OVA received 100 nmol of each peptide in the first injection and 50 nmol of each in the second. Seven days after the boost, the mice were sacrificed, and sera and spleens were harvested.
Determination of antibody titers. High-binding ELISA plates (eBioscience) were coated with either 20 μg/mL peptide in PBS or PBS alone (for uncoated background subtraction) overnight at 4° C. […] To determine titers for each antiserum, background absorbance values from uncoated wells were subtracted from coated wells, and net absorbances were compared to cutoff values. The cutoff consisted of the mean plus three times the standard deviation of the negative control group (mice receiving OVA without adjuvant) for each corresponding dilution. Any sample dilutions having absorbances above this cutoff value were considered positive readings. The titer was considered as the highest dilution for which it and all lower dilutions had positive readings. If no positive dilutions were present the titer was considered to be 10^2. […] Antibody isotypes were analyzed similarly using a mouse monoclonal antibody kit containing goat anti-mouse IgG1, IgG2a, IgG2b, IgG3, and IgM (Sigma).

[3] = test system: CFSE labeled OTII cells; assay: Adoptive transfer of CFSE-labeled OTII T cells and immunization; assay type: in vivo, mice; settings: 100 nmol s.c., five days after immunization, spleen and lymph nodes
Experimental: Antibody responses to self-assembled peptides are T cell-dependent. […] To determine the requirement for T cells, an adoptive T cell transfer assay was performed. Specifically, mice were injected with CFSE labeled […] cells, which express receptors for the H-2^b restricted OVA epitope. Antigen-mediated proliferation causes a decrease in the CFSE intensity which can be detected by flow cytometry.
Adoptive Transfer of T cells OTII transgenic mice on C57BL/6 background, whose T cells recognize the OVA peptide and carry a marker to distinguish them from naïve T cells from B6 mice (CD90.1 congenic). In vivo CD4+ T cell proliferation was analyzed after adoptive transfer into mice and immunization with the peptides. Briefly, splenocytes and lymph nodes of OTII+ C57BL/6 mice were processed into a single cell suspension and enriched for CD4+ T cells, by negative magnetic separation (Miltenyi Biotec). […] After staining, cells were washed twice with FACS buffer and samples were run on the LSR-II (BD Biosciences, NJ) flow cytometer and analyzed for evidence of proliferation as indicated by dilution of CFSE intensity using. FlowJo cytometry analysis software (Tree Star, OR) was used to analyze and quantify the results. […]

[4] = ranges: high and low values among three batches for each peptide
Experimental: Endotoxin levels of all formulations were tested using a Limulus Amebocyte Lystae (LAL) chromogenic end point assay (Lonza, USA).
To account for batch-to-batch variability three different sets of peptides were synthesized for immunizing mice.

[5] = test system: primary human endothelial cells; settings: cited from earlier work
[6] = test system: mice; settings: mouse, in vivo; cited from earlier work
[7] = test system: C57BL/6 mice; assay: Subcutaneous immunization with OVA-KFE8 enantiomers, antibody responses by ELISA (Example 4); assay type: in vivo; settings: plates coated with free OVA peptide
[8] = test system: OT-II cells; assay: In vitro activation assay of OT-II lymphocytes on nanofiber-coated wells, cytokines by flow cytometry; assay type: cell-based, mice; settings: 6 h stimulation
Description: OVA-KFE8D Nanofibers Induce Robust CD4 T Helper Cell Responses. OVA (ISQAVHAAHAEINEAGR) (SEQ ID NO: 26), is a well-characterized CD4+ T helper epitope, a portion of which is also recognized by B cells (ISQAVHAAHA) (SEQ ID NO: 58) (Robertson, et al., 2000). Therefore, immunization with OVA leads to both CD4+ T cell activation and antibody production and studies have shown that antibody responses against OVA are CD4+ T celldependent (Rudra, et al., 2012; Robertson, et al., 2000). To assess whether the enantiomeric nature of nanofibers that contributed to enhanced antibody responses also leads to differential CD4+ T helper cell functionality, we utilized transgenic mice (OT-II mice) that have CD4+ T cells (OT-II cells) whose receptors recognize OVA in the context of MHC-class II molecules.30 CD4+ T cell responses were assessed using an in vitro activation assay. Whole lymphocyte extracts (containing antigen-presenting cell, B cell, and CD4+ T cell populations) from OT-II mice were cultured in wells coated with OVA-bearing enantiomers, and 6 h later the production of cytokines IFN-γ and IL-2 were measured using flow cytometry. Lymphocytes stimulated with PBS or free OVA peptide were used as negative and positive controls, respectively.

[9] = test system: CFSE-labeled OT-II cells; assay: Footpad adoptive transfer of CFSE-labeled OT-II cells one week after immunization; assay type: in vivo, mice; settings: cells transferred a week after footpad immunization, lymph nodes 24 h later
Description: OVA-KFE8D Nanofibers Prolong Antigen Presentation at the Immunization Site. Previous studies from our lab have shown that peptide nanofiber vaccines (all L-amino acids) are cleared from the immunization site as early as 10 days after vaccination compared to depot forming adjuvants (Chesson, et al., 2014). To investigate whether the reduced proteolytic susceptibility of D-amino acid peptides prolongs antigen-presentation at the immunization site, we used adoptive transfer experiments where mice were injected at the immunization site with CFSElabeled OT-II cells (OVA-specific CD4+ T cells) and measured proliferation of the OT-II cells (in response to existing antigen) via the dilution of the CFSE label using flow cytometry. For these studies, immunizations and adoptive transfers were done in the footpads to maximize antigen depot-OT-II CD4+ T cell interaction and easy collection of draining lymph nodes. Mice were immunized with OVA-KFE8L or OVA-KFE8D nanofibers and a week later CFSE-labeled OT-II cells were transferred at the vaccination site. Twenty-four hours later, mice were sacrificed and draining lymph nodes were extracted.

[10] = design: species or system mice; settings: mouse, in vivo
Description: Peptide assemblies (stained brown and indicated by arrows) were found at the cortex of the lymph nodes by wk 1 and continued to persist up to wk 6. […] Although the mechanism of trafficking is unknown, co-staining for macrophages, dendritic cells, or B cells might provide further insights into the uptake and processing of these peptides in vivo.
Immunohistochemistry Freshly dissected skeletal muscle and inguinal lymph nodes were fixed overnight with 4% formaldehyde in phosphate-buffered saline (pH 7.2) and the tissue was processed and embedded in paraffin at the Human Tissue Resource Center (University of Chicago). The paraffin blocks were cut on a microtome (Leica, USA) into 4 μm thick sections and were deparaffinized with xylene and rehydrated with gradient ethanol. The sections were boiled in 10 mM sodium citrate solution (pH 6.0) for 10 min to retrieve the antigens and blocked with 5% BSA in PBS for 1 hr. The sections were then incubated with Horseradish Peroxidase Avidin D (Vector Laboratories, CA) for 3 hrs, and the biotin was visualized using a peroxidase substrate diaminobenzidine kit (Vector Laboratories, CA). The sections were also counterstained with Mayer's hematoxylin solution (Sigma-Aldrich, USA) for 10 mins. The slides were dehydrated with gradient ethanol and xylene and mounted with Permount Mounting Medium (Fisher Scientific, PA). Images were acquired using a Zeiss Axioskop at the Microscopy Core Facility (University of Chicago).

[11] = test system: KO mice lacking both the αβ and γδ receptors; assay: Immunization of T cell receptor KO mice, antibody production; assay type: in vivo; settings: over 6 wks
Description: To confirm the necessity of T cells, KO mice lacking both the αβ and γδ receptors for CD4^+ T cells were immunized with OVA-Q11 along with wild type controls. […] The wild type control mice responded as expected. […] To ensure that the KO mice are capable of eliciting immune responses, they were immunized with a T-independent antigen, NP-Ficoll. […] This finding might not be surprising because OVA is a strong MHC class II peptide, containing both B and T cell determinants.

[12] = test system: C57BL/6 mice; assay: Long-term serum antibody ELISA after immunization with Q11-linked peptides (Example 2); settings: boost at wk 4
Experimental: The dose dependence and longevity of the antibody response to OVA-Q11 was further investigated and antibody responses against the malarial peptide epitope (NANP)3 coupled to Q11 were also characterized. Mice were immunized with two different doses of OVA-Q11 (100 nmol and 50 nmol), or 100 nmol of (NANP)3-Q11 and boosted with half the dose at wk 4. Mice were bled on a weekly basis up to wk 6, once at wk 8, and once every four weeks thereafter.
Animals and Immunizations Peptides were dissolved in sterile water (8 mM stock), incubated overnight at 4° C., and diluted in sterile PBS (2 mM working concentration) prior to immunizations. For the malaria peptide, (NANP)3-Q11, the formulations were incubated in PBS overnight to ensure complete fibril formation. […] Female C57BL/6 mice (6-8 weeks old, Taconic Farms, IN) were immunized subcutaneously with two 50 μL injections in the back, with each injection containing 100 nmol of peptide. […]
Determination of Antibody Production ELISA plates (eBioscience) were coated with 20 μg/mL of peptide or 0.5 μg/mL of whole protein in PBS overnight at 4° C. […] The reaction was stopped using 50 μL of 1 M phosphoric acid and 100 μL of the solution was transferred to fresh plates and absorbance values were read at 450 nm. Absorbance values of PBS (no antigen) coated wells were subtracted to account for background. […]

[13] = test system: rat myocardium; settings: in vivo; cited from earlier work
[14] = test system: mouse myocardium; settings: in vivo; cited from earlier work

T1 sequence (P22629 25-183): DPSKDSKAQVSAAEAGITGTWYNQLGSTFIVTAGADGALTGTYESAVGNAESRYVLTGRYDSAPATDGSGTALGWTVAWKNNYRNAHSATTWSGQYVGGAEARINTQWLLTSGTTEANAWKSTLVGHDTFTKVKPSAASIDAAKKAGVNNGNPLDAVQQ

In the case of “Ac-QQKFQFQFEQQ-NH2 [Peptide Q11, Ac-QQKFQFQFEQQ-Am]”, the “Binding of streptavidin-gold to fibrils” value [1] is reported as “negligible numbers of particles; also recorded: did not bind streptavidin-gold”, the “Total IgG response” value ([2]; delivered in CFA) is reported as “non-immunogenic even in CFA” and the “Total IgG response” value ([2]; delivered with or without CFA) is reported as “did not raise any detectable IgG”. The “Total IgG response” value ([2]; peptide in PBS without added adjuvant, s.c., boost day 28, serum 7 days after boost) was “did not elicit a response”, the “Transferred cells that proliferated (shift in CFSE intensity)” value [3] was “negligible shift in CFSE intensity” and the Endotoxin [4] was 0.024-0.098 EU/mL. For the same substance, the “Cell death / cytotoxicity in primary cell cultures” value [5] was “did not induce cell death” and the Antibody responses [6] was “little to no antibody responses”.
In the case of “H2N-ISQAVHAAHAEINEAGRSGSGFKFEFKFE-Am (H-ISQAVHAAHAEINEAGRSGSGFKFEFKFE-NH2; not fully specified (some residues)) [OVA-KFE8(L)]”, the Dominant antibody isotype [7] is reported as “IgG1”, the “IFN-γ production by OT-II cells compared to wells coated with PBS or bare nanofibers” value [8] is reported as “significantly higher levels” and the “IL-2 production by OT-II cells compared to wells coated with PBS or bare nanofibers” value [8] is reported as “significantly higher levels”. The “Transferred OT-II cells that had proliferated (shift in CFSE intensity)” value [9] was “only background levels of proliferation”.
For “ISQAVHAAHAEINEAGRSGSGQQKFQFQFEQQ-NH2 (C-terminus assumed) [O-Q11]”, the “Localization of peptide assemblies” value [10] was “localized to the draining lymph nodes”, the “Persistence of peptide assemblies in lymph nodes” value [10] was at most 6 wk and the “Time at which peptide assemblies were found at the cortex of the lymph nodes” value [10] was at most 1 wk. The Endotoxin [4] was 0.08-0.28 EU/mL.
In the case of “NANPNANPNANPSGSGQQKFQFQFEQQ [(NANP)3-Q11]”, the “Antibody production in T cell receptor KO mice” value [11] is reported as “no antibody production”, the “Spike in antibody levels after the boost” value ([12]; 100 nmol) is reported as “no spike in antibody levels” and the “Time for which antibodies were detectable” value [12] is reported as “up to 28 wks”.
For n-RARADADARARADADA-c [RAD16-II], the Tissue responses [13] is listed as “Negligible tissue responses” and the Tissue responses [14] is listed as “Negligible tissue responses”.
